The values below are quoted from earlier work in patent publication US8765739B2, “Azetidine compound and pharmaceutical use thereof” (Japan Tobacco Inc., priority 2009, dated 2014).

The test system of series [1] is mice with collagen-induced arthritis.
In series [2] the test system is rats suffering from experimental autoimmune encephalomyelitis. To be noted: animal model of multiple sclerosis.
For series [3], the system named is bone absorption induced by metastatic cancer in rat.

For the molecule `COc1cc(Oc2ccnc3cc(OC)c(OC)cc23)ccc1NC(=O)NC(C)c1nccs1` (stereo not drawn) [Ki20227], the “swellings and bone destructions” value in series [1] was “improves swellings and bone destructions”. Besides, the “condition of rats with experimental autoimmune encephalomyelitis” value in series [2] is “improves the condition”. Besides, in series [3], the “bone absorption induced by metastatic cancer” value is reported as “improves bone absorption”.
